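Grown in 96-well plates, cells were treated for 48 hours with each compound at five concentrations. Insufficient inhibition: endpoint recorded as highest concentration tested. GI50 is the concentration that inhibits growth by half. TGI: total growth inhibition.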
Columns and labels:
Test in all cases: NCI-60 cell line screen, 48 h
NCI-H460 lung = system: NCI-H460 lung
OVCAR-5 ovarian = system: OVCAR-5 ovarian
UACC-257 melanoma = system: UACC-257 melanoma
HOP-62 NSCLC = system: HOP-62 NSCLC
NCI-H522 lung = system: NCI-H522 lung
SNB-19 CNS = system: SNB-19 CNS
SN12C renal = system: SN12C renal
OVCAR-3 ovarian = system: OVCAR-3 ovarian
SK-OV-3 ovarian = system: SK-OV-3 ovarian
RXF 393 renal = system: RXF 393 renal

CCC(O)c1ccc(Br)cc1NC(=O)c1cccc(Cl)c1 (centres undefined)
GI50 (NCI-H460 lung): 21.9 µM
TGI (NCI-H460 lung): 78.5 µM
GI50 (OVCAR-5 ovarian): 32.3 µM
TGI (OVCAR-5 ovarian): > 100 µM
GI50 (UACC-257 melanoma): 18.4 µM
TGI (UACC-257 melanoma): 35.1 µM
GI50 (HOP-62 NSCLC): 20 µM
TGI (HOP-62 NSCLC): 44.6 µM
GI50 (NCI-H522 lung): 19.8 µM
TGI (NCI-H522 lung): 81 µM
GI50 (SNB-19 CNS): 37.4 µM
TGI (SNB-19 CNS): > 100 µM
GI50 (SN12C renal): 24.4 µM
TGI (SN12C renal): > 100 µM
GI50 (OVCAR-3 ovarian): 20.3 µM
TGI (OVCAR-3 ovarian): 71.1 µM
GI50 (SK-OV-3 ovarian): 23.7 µM
TGI (SK-OV-3 ovarian): 64.3 µM

COc1ccc(NC(=O)CC2SC(=Nc3ccccc3C)NC2=O)c([N+](=O)[O-])c1 (centres undefined)
TGI (NCI-H460 lung): > 100 µM
TGI (OVCAR-5 ovarian): > 100 µM
TGI (UACC-257 melanoma): > 100 µM
TGI (HOP-62 NSCLC): > 100 µM
TGI (NCI-H522 lung): 80.5 µM
TGI (SNB-19 CNS): > 100 µM
TGI (SN12C renal): > 100 µM
TGI (OVCAR-3 ovarian): > 100 µM
TGI (SK-OV-3 ovarian): > 100 µM

COC12CCC(=O)C=C1c1ccccc1N2C(C)=O (centres undefined)
TGI (RXF 393 renal): > 100 µM
TGI (NCI-H460 lung): > 100 µM
TGI (UACC-257 melanoma): > 100 µM
TGI (HOP-62 NSCLC): > 100 µM
TGI (SNB-19 CNS): > 100 µM
TGI (SN12C renal): > 100 µM
TGI (OVCAR-3 ovarian): > 100 µM
TGI (SK-OV-3 ovarian): > 100 µM

CC[n+]1oc(C(=O)c2ccc(Cl)cc2)c(-c2ccccc2)c1-c1ccccc1.[Cl][Fe]([Cl])([Cl])[Cl]
GI50 (NCI-H460 lung): 43.2 µM
TGI (NCI-H460 lung): > 100 µM
GI50 (OVCAR-5 ovarian): 82.4 µM
TGI (OVCAR-5 ovarian): > 100 µM
TGI (UACC-257 melanoma): 15.5 µM
GI50 (HOP-62 NSCLC): 29.7 µM
TGI (HOP-62 NSCLC): > 100 µM
GI50 (SNB-19 CNS): > 100 µM
TGI (SNB-19 CNS): > 100 µM
GI50 (SN12C renal): 83.5 µM
TGI (SN12C renal): > 100 µM
GI50 (OVCAR-3 ovarian): 23.1 µM
TGI (OVCAR-3 ovarian): 56.2 µM
GI50 (SK-OV-3 ovarian): 46.7 µM
TGI (SK-OV-3 ovarian): > 100 µM

Cc1ccc(NC(=O)CCc2nc(N)nc(N)c2-c2ccccc2)cc1C
TGI (NCI-H460 lung): > 100 µM
TGI (OVCAR-5 ovarian): > 100 µM
TGI (UACC-257 melanoma): > 100 µM
TGI (HOP-62 NSCLC): > 100 µM
TGI (NCI-H522 lung): > 100 µM
TGI (SNB-19 CNS): > 100 µM
TGI (SN12C renal): > 100 µM
TGI (OVCAR-3 ovarian): > 100 µM
TGI (SK-OV-3 ovarian): > 100 µM

COc1ccc(-c2cs/c(=N\N=C\c3ccc(O)cc3O)n2/N=C/c2ccc(O)cc2O)cc1
GI50 (NCI-H460 lung): 2.01 µM
TGI (NCI-H460 lung): 4.43 µM
GI50 (OVCAR-5 ovarian): 2.37 µM
TGI (OVCAR-5 ovarian): 5.18 µM
GI50 (UACC-257 melanoma): 2.28 µM
TGI (UACC-257 melanoma): 6.19 µM
GI50 (NCI-H522 lung): 1.88 µM
TGI (NCI-H522 lung): 4.68 µM
GI50 (SNB-19 CNS): 2.46 µM
TGI (SNB-19 CNS): 6.84 µM
GI50 (SN12C renal): 2.18 µM
TGI (SN12C renal): 5.35 µM
GI50 (OVCAR-3 ovarian): 1.75 µM
TGI (OVCAR-3 ovarian): 3.67 µM
GI50 (SK-OV-3 ovarian): 2.31 µM
TGI (SK-OV-3 ovarian): 5.02 µM

COc1ccc(OC)c(NC(=O)CCC/C(CC(=O)c2ccc(O)c(OC)c2)=N\Nc2nnc(C)n2N)c1
TGI (NCI-H460 lung): > 100 µM
TGI (OVCAR-5 ovarian): > 100 µM
TGI (UACC-257 melanoma): > 100 µM
TGI (HOP-62 NSCLC): > 100 µM
TGI (NCI-H522 lung): > 100 µM
TGI (SNB-19 CNS): > 100 µM
TGI (SN12C renal): > 100 µM
TGI (OVCAR-3 ovarian): > 100 µM
TGI (SK-OV-3 ovarian): > 100 µM

Source: PubChem BioAssay (NCI)
